pIC50: −log10 of the molar value.
Molecular target: T1, human recombinant GPR65 (Homo sapiens, UniProt Q8IYL9)
T1 construct: host or cells: 1321N1 human astrocytoma cells (1321N1-hrGPR65)
Assay: Human GPR65 cAMP HTRF antagonist assay
Assay type: cell-based
Settings: not given
How it was run: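 1321N1 astrocytoma cells stably expressing GPR65 were preincubated with compound for 30 min at room temperature in KRH pH 7.6 with 1 mM IBMX and 200 μM EDTA. They were then stimulated at assay pH 7.2 for 30 min, with controls at pH 7.9. cAMP was read by HTRF (665/620 nm), normalised to controls and fitted by 4-parameter logistic to give IC50.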

T1 sequence (Q8IYL9 whole entry): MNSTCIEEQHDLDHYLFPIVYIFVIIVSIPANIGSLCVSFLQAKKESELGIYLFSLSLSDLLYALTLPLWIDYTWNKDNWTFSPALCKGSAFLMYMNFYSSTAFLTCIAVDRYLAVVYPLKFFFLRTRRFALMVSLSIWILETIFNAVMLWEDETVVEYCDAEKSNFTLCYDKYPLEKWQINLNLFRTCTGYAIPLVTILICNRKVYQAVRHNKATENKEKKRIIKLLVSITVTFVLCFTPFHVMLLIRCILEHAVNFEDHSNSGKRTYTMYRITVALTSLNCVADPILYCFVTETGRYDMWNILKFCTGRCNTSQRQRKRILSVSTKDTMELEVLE

`O=C(Nc1cc(Br)c(C(F)(F)F)cc1F)N1[C@H]2CC[C@@H]1c1c[nH]c(=O)cc1C2` [Compound 144, (6S,9R)-N-(5-Bromo-2-fluoro-4-(trifluoromethyl)phenyl)-3-oxo-3,5,6,7,8,9-hexahydro-2H-6,9-epiminocyclohepta[c]pyridine-10-carboxamide] was tested. Which pIC50 did it give?
The pIC50 was greater than 6.30.

With `O=C(Nc1cccc(-c2ccccc2)c1)N1[C@H]2CC[C@@H]1c1ccnc(F)c1C2` [Compound 184, (5R,8S)-N-([1,1′-Biphenyl]-3-yl)-1-fluoro-6,7,8,9-tetrahydro-5H-5,8-epiminocyclohepta[c]pyridine-10-carboxamide] as the molecule, how does the pIC50 read?
Its pIC50 is greater than 6.30.

With `O=C(Nc1ccc(OC(F)(F)F)cc1)N1C2CCC1c1ccnc(F)c1C2` (racemic) [Compound 157, (±)-1-Fluoro-N-(4-(trifluoromethoxy)phenyl)-6,7,8,9-tetrahydro-5H-5,8-epiminocyclohepta[c]pyridin-10-carboxamide] as the molecule, how does the pIC50 read?
The pIC50 was greater than 6.30.

`Cc1cc(NC(=O)N2C3CCC2c2ccnc(F)c2C3)ccc1C(F)(F)F` (racemic) [Compound 167, (±)-1-Fluoro-N-(3-methyl-4-(trifluoromethyl)phenyl)-6,7,8,9-tetrahydro-5H-5,8-epiminocyclohepta[c]pyridine-10-carboxamide] was tested. Which pIC50 did it give?
The pIC50 was greater than 6.30.

How did the pIC50 turn out when `O=C(Nc1ccc(Cl)c(Cl)c1)N1C2CCC1c1cc[n+]([O-])cc1C2` (racemic) [Compound 58, (±)-10-((3,4-Dichlorophenyl)carbamoyl)-6,7,8,9-tetrahydro-5H-5,8-epiminocyclohepta[c]pyridine 2-oxide] was run?
The pIC50 was greater than 6.30.

With `O=C(Nc1ccc(Cl)c(Cl)c1)N1C2CCC1c1ccncc1C2` (racemic) [Compound 36, (±)-N-(3,4-Dichlorophenyl)-6,7,8,9-tetrahydro-5H-5,8-epiminocyclohepta[c]pyridine-10-carboxamide] as the molecule, how does the pIC50 read?
The pIC50 was greater than 6.30.

`O=C(Nc1cc(Br)c(C(F)(F)F)cc1F)N1[C@H]2CC[C@@H]1c1ccnc(F)c1C2` [Compound 180, (5R,8S)-N-(5-Bromo-2-fluoro-4-(trifluoromethyl)phenyl)-1-fluoro-6,7,8,9-tetrahydro-5H-5,8-epiminocyclohepta[c]pyridine-10-carboxamide] was tested. Which pIC50 did it give?
Its pIC50 is greater than 6.30.

How did the pIC50 turn out when `C[C@H]1c2cnccc2[C@H]2CC[C@@H]1N2C(=O)Nc1ccc(Cl)c(Cl)c1` [Compound 134, (5R,8S,9S)-N-(3,4-Dichlorophenyl)-9-methyl-6,7,8,9-tetrahydro-5H-5,8-epiminocyclohepta[c]pyridine-10-carboxamide] was run?
Its pIC50 is greater than 6.30.

How did the pIC50 turn out when `O=C(Nc1ccc(OC(F)(F)F)c(Cl)c1)N1[C@H]2CC[C@@H]1c1c[nH]c(=O)cc1C2` [Compound 128, (6S,9R)-N-(3-Chloro-4-(trifluoromethoxy)phenyl)-3-oxo-3,5,6,7,8,9-hexahydro-2H-6,9-epiminocyclohepta[c]pyridine-10-carboxamide] was run?
The pIC50 was greater than 6.30.

`O=C(Nc1cccc(C(F)(F)F)c1)N1C2CCC1c1ccnc(F)c1C2` (racemic) [Compound 156, (±)-1-Fluoro-N-(3-(trifluoromethyl)phenyl)-6,7,8,9-tetrahydro-5H-5,8-epiminocyclohepta[c]pyridine-10-carboxamide] was tested. Which pIC50 did it give?
The pIC50 was greater than 6.30.

With `O=C(Nc1cc(Cl)c(C(F)(F)F)cc1F)N1[C@@H]2CC[C@H]1c1c[nH]c(=O)c(F)c1C2` [Compound 147, (6R,9S)-N-(5-Chloro-2-fluoro-4-(trifluoromethyl)phenyl)-4-fluoro-3-oxo-3,5,6,7,8,9-hexahydro-2H-6,9-epiminocyclohepta[c]pyridine-10-carboxamide] as the molecule, how does the pIC50 read?
The pIC50 was greater than 6.30.

How did the pIC50 turn out when `O=C(Nc1ccc(Cl)c(Cl)c1)N1C2CCC1c1ncncc1C2` (racemic) [Compound 17, (±)-N-(3,4-Dichlorophenyl)-6,7,8,9-tetrahydro-5H-6,9-epiminocyclohepta[d]pyrimidine-10-carboxamide] was run?
Its pIC50 is greater than 6.30.

How did the pIC50 turn out when `O=C(Nc1cc(Cl)c(C(F)(F)F)cc1F)N1[C@H]2CC[C@@H]1c1c[nH]c(=O)cc1C2` [Compound 93, (6S,9R)-N-(5-Chloro-2-fluoro-4-(trifluoromethyl)phenyl)-3-oxo-3,5,6,7,8,9-hexahydro-2H-6,9-epiminocyclohepta[c]pyridine-10-carboxamide] was run?
The pIC50 was greater than 6.30.

Same assay, conditions: 1321N1-hrGPR65 cells, assay pH 7.2, cAMP HTRF; read-out: hGPR65 IC50 (activity class)

How did the pIC50 turn out when `O=C(Nc1cc(Cl)c(C(F)(F)F)cc1F)N1C2CCC1c1c(Cl)nnc(Cl)c1C2` (racemic) [Compound 195, (±)-1,4-Dichloro-N-(5-chloro-2-fluoro-4-(trifluoromethyl)phenyl)-6,7,8,9-tetrahydro-5H-5,8-epiminocyclohepta[d]pyridazine-10-carboxamide] was run?
The pIC50 was 5.30 to 6.30.

With `O=C(Nc1cccc(F)c1)N1C2CCC1c1ccnc(F)c1C2` (racemic) [Compound 155, (±)-1-Fluoro-N-(3-fluorophenyl)-6,7,8,9-tetrahydro-5H-5,8-epiminocyclohepta[c]pyridine-10-carboxamide] as the molecule, how does the pIC50 read?
Its pIC50 is 5.30 to 6.30.

With `N#Cc1cc(NC(=O)N2C3CCC2c2ccnc(F)c2C3)ccc1F` (racemic) [Compound 165, (±)-N-(3-Cyano-4-fluorophenyl)-1-fluoro-6,7,8,9-tetrahydro-5H-5,8-epiminocyclohepta[c]pyridine-10-carboxamide] as the molecule, how does the pIC50 read?
The pIC50 was 5.30 to 6.30.

How did the pIC50 turn out when `COC(=O)c1cc(NC(=O)N2[C@H]3CC[C@@H]2c2c[nH]c(=O)cc2C3)ccc1Cl` [Compound 131, Methyl 2-chloro-5-((6S,9R)-3-oxo-3,5,6,7,8,9-hexahydro-2H-6,9-epiminocyclohepta[c]pyridine-10-carboxamido)benzoate] was run?
The pIC50 was 5.30 to 6.30.

With `O=C(Nc1ccc(Cl)c(Cl)c1)N1[C@@H]2CC[C@H]1c1c[nH]c(=O)nc1C2` [Compound 105, (5S,8R)-N-(3,4-Dichlorophenyl)-2-oxo-3,5,6,7,8,9-hexahydro-2H-5,8-epiminocyclohepta[d]pyrimidine-10-carboxamide] as the molecule, how does the pIC50 read?
The pIC50 was less than 5.30.

How did the pIC50 turn out when `O=C(Nc1ccc(C(F)(F)F)c(Cl)c1)N1C2CCC1c1cnc(C(F)(F)F)nc1C2` (racemic) [Compound 27, (±)-N-(3-Chloro-4-(trifluoromethyl)phenyl)-2-(trifluoromethyl)-6,7,8,9-tetrahydro-5H-5,8-epiminocyclohepta[d]pyrimidine-10-carboxamide] was run?
Its pIC50 is less than 5.30.

How did the pIC50 turn out when `O=C(Nc1ccc(Cl)cc1)N1C2CCC1c1cncnc1C2` (racemic) [Compound 49, (±)-N-(4-Chlorophenyl)-6,7,8,9-tetrahydro-5H-5,8-epiminocyclohepta[d]pyrimidine-10-carboxamide] was run?
Its pIC50 is less than 5.30.

With `O=C(Nc1ccc(Cl)c(Cl)c1)N1[C@@H]2CC[C@H]1c1ccncc1C2` [Compound 107, (5S,8R)-N-(3,4-Dichlorophenyl)-6,7,8,9-tetrahydro-5H-5,8-epiminocyclohepta[c]pyridine-10-carboxamide] as the molecule, how does the pIC50 read?
The pIC50 was less than 5.30.

`O=C(Nc1cc(Cl)c(C(F)(F)F)cc1F)N1C2CCC1c1cnc(F)c(F)c1C2` (racemic) [Compound 136, (±)-N-(5-Chloro-2-fluoro-4-(trifluoromethyl)phenyl)-3,4-difluoro-6,7,8,9-tetrahydro-5H-6,9-epiminocyclohepta[c]pyridine-10-carboxamide] was tested. Which pIC50 did it give?
Its pIC50 is 5.30 to 6.30.

How did the pIC50 turn out when `CC(C)(C)Nc1cc2c(cn1)CC1CCC2N1C(=O)Nc1ccc(Cl)c(Cl)c1` (racemic) [Compound 66, (±)-3-(tert-Butylamino)-N-(3,4-dichlorophenyl)-6,7,8,9-tetrahydro-5H-5,8-epiminocyclohepta[c]pyridine-10-carboxamide] was run?
Its pIC50 is 5.30 to 6.30.

With `N#Cc1ccc2c(c1)CC1CCC2N1C(=O)Nc1ccc(Cl)c(Cl)c1` (racemic) [Compound 72, (±)-2-Cyano-N-(3,4-dichlorophenyl)-6,7,8,9-tetrahydro-5H-5,8-epiminobenzo[7]annulene-10-carboxamide] as the molecule, how does the pIC50 read?
The pIC50 was 5.30 to 6.30.
